# *1 amine or outer side, *2 acyl side, *3 side chain or, on linkers, in order; H or OH if unused. Where a SMILES comes first, the peptide text is derived from it. [ ]: non-standard residue; d: D form. The star is where a group is joined. Gly(1-adamantyl) = N[C@H](C(=O)O)C12CC3CC(CC(C3)C1)C2; Asp(3,3-(CH2)4) = N[C@H](C(=O)O)C1(C(=O)O)CCCC1; tBuAla = CC(C)(C)C[C@H](N)C(=O)O; Tle = CC(C)(C)[C@H](N)C(=O)O; NH(3-pentyl) = CCC(CC)N*; Pyrrolidide = C1CCN(*)C1; X2 = CC(C)(C)CC(C)(C)N*; CO = O=C([*:1])[*:2]; X1 = CCCC1(N*)CCCC1; X3 = CCCC(C)(C)N*; X4 = CCCC(CCC)N*
# Tested on: Herpes Simplex Virus (HSV-2)
# Format: cell-based
# Settings: 29 h
# Method: BHK-21/C13 cells (ATCC CCL 10) are incubated for two days in 150 cm^2 T-flasks (1.5 x 10^6 cells/flask) with alpha-MEM medium (Gibco Canada Inc., Burlington, Ontario, Canada) supplemented with 8% (v/v) fetal bovine serum (FBS, Gibco Canada Inc.). The cells are trypsinized and then transferred to fresh media in a 24 well plate to give 2.5 x 10^5 cells in 750 µL of media per well. The cells are incubated at 37° for a period of 6 h to allow them to adhere to the plate. Thereafter, the cells are washed once with 500 µL of alpha-MEM supplemented with 0.5% (v/v) FBS and then incubated with 750 µL of the same media (low serum) for 3 days. After this period of serum starvation, the low serum medium is removed and the cells are incubated in 500 µL of BBMT for 2 to 3 hours. {BBMT medium is described by P. Brazeau et al., Proc. Natl. Acad. Sci. USA, 79, 7909 (1982).} Thereafter, the cells are infected with HSV-2 (multiplicity of infection = 0.02 PFU/cell) in 100 µL of BBMT medium. (Note: The HSV-2 used was strain HG-52, see Y. Langelier and G. Buttin, J. Gen. Virol., 57, 21 (1981); the virus was stored at -80°.) Following 1 h of virus adsorption at 37°, the media is removed and the cells are washed with BBMT (3 X 250 µL). The cells in each well are incubated with or without (control) appropriate concentrations of the test agent dissolved in 200 µL of BBMT medium. After 29 h of incubation at 37°, the infected cells are harvested by first freezing the plate at -80°, followed by thawing. The cells in each well are scraped off the surface of the well with the help of the melting ice fragments. After complete thawing, the cell suspensions are collected and each well is rinsed with 150 µL of BBMT medium. The viral sample (suspension plus washing) is sonicated gently for 4 min at 4°. Cell debris are removed by centrifugation (1000 times gravity for 10 minutes at 4°). The supernatant is collected and stored at -80° until determination of viral titer.
# Viral titration was performed by a modification of the colorimetric assay method of M. Langlois et al., Journal of Biological Standardization, 14, 201 (1986).
# More specifically, in a similar manner as described above, BHK-21/C13 cells are trypsinized and transferred to fresh media in a 96 well microtiter plate to give 20,000 cells in 100 µL of media per well. The cells in the prepared plate are incubated at 37° for, 2 h. During that time, the viral sample is thawed and sonicated gently for 15 seconds, and log dilutions of the sample are prepared (1/5 sequential: 50 µL of the sample plus 200 µL of BBMT medium, sequential dilutions being done with a multichannel pipette.
# On completion of the above 2 hour incubation of the BHK-21/C13 cells, the media is replaced with alpha-MEM medium supplemented with 3% (v/v) FBS. The cells are now ready to be infected with the various sample dilutions of virus. Aliquots (50 µL) of the various dilutions are transferred into the appropriate wells of the plate. The resulting infected cells are incubated for 2 days at 37°. Then 50 µL of a 0.15% (v/v) solution of neutral red dye in Hank's Balanced Salt Solution (pH 7.3, Gibco Canada Inc.) is added to each well. The prepared plate is incubated for 45 min at 37°. Medium from each well is then aspirated and the cells are washed once with 200 µL of Hank's Balanced Salt Solution. After the wash, the dye is released from the cells by the addition of 100 µL of a 1:1 mixture of 0.1 M Sorensen's citrate buffer (pH 4.2) and ethanol. {Sorensen's citrate buffer is prepared as follows: Firstly, a 0.1 M disodium citrate solution is prepared by dissolving citric acid monohydrate (21 g) in 1 N aqueous NaOH (200 mL) and adding sufficient filtered H2O to make 1 L. Secondly, the 0.1 M disodium citrate solution (61.2 mL) is mixed with 0.1 N aqueous HCl (38.8 mL) and the pH of the resulting solution is adjusted to 4.2 if necessary.} The mixture in the wells is subjected to a gentle vortex action to ensure proper mixing.
row,Structure (SMILES),EC50 [µM]
1,CCCC(CC)(CCC)NC(=O)N[C@H](C(=O)N[C@@H](CC(=O)N1CCCC1)C(=O)N[C@H](C(=O)N[C@H](CC)C(C)(C)C)C1(C(=O)O)CCCC1)C(C)(C)C [EtPr2CNHC(O)-Tbg-Asp(pyrrolidino)-Asp(cyPn)NH-(R)-CH(Et)CMe3],7
2,CCCC(CCC)NC(=O)N[C@H](C(=O)N[C@@H](CC(=O)N1CCCC1)C(=O)N[C@H](C(=O)N[C@H](CO)CC(C)(C)C)C1(C(=O)O)CCCC1)C(C)(C)O [Pr2CHNHC(O)-NH-(S)-CH{C(CH3)2OH}-C(O)-Asp(pyrrolidino)-Asp(cyPn) γMeLeucinol],210
3,CCC(CC)NC(=O)N[C@H](C(=O)N[C@@H](CC(=O)N1CCCC1)C(=O)N[C@H](C(=O)N[C@@H](CC(C)C)C(=O)O)[C@H](C(=O)O)C(C)C)C(C)(C)C [Et2CHNHC(O)-Tbg-Asp(pyrrolidino)-Asp{(R)-iPr}-Leu-OH],300
4,"CCC(CC)NC(=O)N[C@H](C(=O)N[C@@H](CC(=O)N1CCCC1)C(=O)N[C@H](C(=O)N[C@@H](CC(C)(C)C)C(=O)O)C1(C(=O)O)CCCC1)C12CC3CC(CC(C3)C1)C2 [Et2CHNHC(O)-NH-(S)-CH(adamantyl)-C(O)-Asp(pyrrolidino)-Asp(cyPn)-γMeLeu-OH] ({NH(3-pentyl)-CO}-[Gly(1-adamantyl)]D(Pyrrolidide)[Asp(3,3-(CH2)4)][tBuAla]-OH)",170
5,CCCC(CCC)NC(=O)N[C@H](C(=O)N[C@@H](CC(=O)C(CC)CC)C(=O)N[C@H](C(=O)NCC(C)(C)C)C1(C(=O)O)CCCC1)C(C)(C)C [Pr2CHNHC(O)-Tbg-NHCH(3-ethyl-2-oxopentyl)CO-Asp(cyPn)-NHCH2CMe3],25
6,"CCCC1(NC(=O)N[C@H](C(=O)N[C@@H](CC(=O)N2CCCC2)C(=O)N[C@H](C(=O)N[C@@H](CC(C)(C)C)C(=O)O)C2(C(=O)O)CCCC2)C(C)(C)C)CCCC1 [(1-propylcyclopentyl)NHCO-Tbg-Asp-(pyrrolidino)-Asp(cyPn)-γMeLeu-OH] ({X1-CO}-[Tle]D(Pyrrolidide)[Asp(3,3-(CH2)4)][tBuAla]-OH)",190
7,"CCCC1(NC(=O)N[C@H](C(=O)N[C@@H](CC(=O)N2CCCC2)C(=O)N[C@H](C(=O)N[C@@H](CC(C)(C)C)C(=O)OCC)C2(C(=O)O)CCCC2)C(C)(C)C)CCCC1 [(1-propylcyclopentyl)-NHC(O)-Tbg-Asp(pyrrolidino)-Asp(cyPn)-γMeLeu-OEt] ({X1-CO}-[Tle]D(Pyrrolidide)[Asp(3,3-(CH2)4)][tBuAla]-OEt)",45
8,CCCC(CCC)NC(=O)N[C@H](C(=O)N[C@@H](CC(=O)N1CCCC1)C(=O)N[C@H](C(=O)N[C@H](CO)CC(C)(C)C)C1(C(=O)O)CCCC1)C(C)(C)C(=O)O [Pr2CHNHC(O)-Asp(diMe)-Asp(pyrrolidino)-Asp(cyPn)-γMeLeucinol],170
9,CC(C)NC(=O)N[C@H](C(=O)N[C@@H](CC(=O)N1CCCC1)C(=O)N[C@H](C(=O)N[C@H](CO)CC(C)(C)C)C1(C(=O)O)CCCC1)C(C)(C)C [Me2CHNHC(O)-Tbg-Asp(pyrrolidino)-Asp(cyPn)-γMeLeucinol],700
10,CCC(CC)NC(=O)N[C@H](C(=O)N[C@@H](CC(=O)N1CCCC1)C(=O)N[C@H](C(=O)N[C@@H](CC(C)(C)C)C(=O)O)[C@H](C(=O)O)C(C)C)C(C)(C)C [Et2CHNHC(O)-Tbg-Asp(pyrrolidino)-Asp{(R)-iPr}-γMeLeu-OH],190
11,"CCCC(C)(C)NC(=O)N[C@H](C(=O)N[C@@H](CC(=O)N1CCCC1)C(=O)N[C@H](C(=O)N[C@@H](CC(C)(C)C)C(=O)O)C1(C(=O)O)CCCC1)C(C)(C)C [PrMe2CNHC(O)-Tbg-Asp(pyrrolidino)-Asp(cyPn)-γMeLeu-OH] ({X3-CO}-[Tle]D(Pyrrolidide)[Asp(3,3-(CH2)4)][tBuAla]-OH)",110
12,CCC(CC)NC(=O)N[C@H](C(=O)N[C@@H](CC(=O)N1CCCC1)C(=O)N[C@H](C(=O)N[C@H](CO)CC(C)(C)C)[C@H](C(=O)O)C(C)C)C(C)(C)C [Et2CHNHC(O)-Tbg-Asp(pyrrolidino)-Asp{(R)-iPr}-γMeLeucinol],140
13,CCC(CC)NC(=O)N[C@H](C(=O)N[C@@H](CC(=O)N1CCCC1)C(=O)N[C@H](C(=O)N[C@H](CO)CC(C)(C)C)C1(C(=O)O)CCCC1)C12CC3CC(CC(C3)C1)C2 [Et2CHNHC(O)-NH-(S)-CH(adamantyl)-C(O)-Asp(pyrrolidino)-Asp(cyPn)-γMeLeucinol],170
14,CCCC(CCC)NC(=O)N[C@H](C(=O)N[C@@H](CC(=O)N1CCCC1)C(=O)N[C@H](C(=O)N[C@H](CO)CC(C)(C)C)C1(C(=O)O)CCCC1)C(C)(C)S [Pr2CHNHC(O)-NH-(R)-CH{C(CH3)2SH}CO-Asp(pyrrolidino)-Asp(cyPn)-γMeLeucinol],290

# Results, then the molecule that gave them:
row,EC50 [µM],Structure (SMILES)
1,270,CCC(CC)NC(=O)N[C@H](C(=O)N[C@@H](CC(=O)N1CCCC1)C(=O)N[C@H](C(=O)NCC(C)(C)C)C1(C(=O)O)CCCC1)C(C)(C)C [Et2CHNHC(O)-Tbg-Asp(pyrrolidino)-Asp(cyPn)-NHCH2CMe3]
2,90,CCCC(CCC)NC(=O)N[C@H](C(=O)N[C@@H](CC(=O)C1CCCC1)C(=O)N[C@H](C(=O)NCC(C)(C)C)C1(C(=O)O)CCCC1)C(C)(C)C [Pr2CHNHC(O)-Tbg-NHCH(2-cyclopentyl-2-oxoethyl)C(O)-Asp(cyPn)-NHCH2CMe3]
3,160,CCCC(CCC)NC(=O)N[C@H](C(=O)N[C@@H](CC(=O)C1CCC1)C(=O)N[C@H](C(=O)NCC(C)(C)C)C1(C(=O)O)CCCC1)C(C)(C)C [Pr2CHNHC(O)-Tbg-NH-(S)-CH(2-cyclobutyl-2-oxoethyl)C(O)-Asp(cyPn)-NHCH2CMe3]
4,75,"CCCC(CCC)NC(=O)N[C@H](C(=O)N[C@@H](CC(=O)N1CCCC1)C(=O)N[C@H](C(=O)N[C@H](CO)CC(C)(C)C)C1(C(=O)O)CCCC1)C(C)(C)C [Title Compound of Example 8, Pr2CHNHC(O)-Tbg-Asp(pyrrolidino)-Asp(cyPn)-γMeLeucinol]"
5,80,"CCCC(CCC)NC(=O)N[C@H](C(=O)N[C@@H](CC(=O)N1CCCC1)C(=O)N[C@H](C(=O)N[C@@H](CC(C)(C)C)C(=O)O)C1(C(=O)O)CCCC1)C(C)(C)C [Pr2CHNHC(O)-Tbg-Asp(pyrrolidino)-Asp(cyPn)-γMeLeu-OH] ({X4-CO}-[Tle]D(Pyrrolidide)[Asp(3,3-(CH2)4)][tBuAla]-OH)"
6,106,CCCC(CCC)NC(=O)N[C@H](C(=O)N[C@@H](CC(=O)N1CCCC1)C(=O)N[C@H](C(=O)NCC(C)(C)CC)C1(C(=O)O)CCCC1)C(C)(C)C [Pr2CHNHC(O)-Tbg-Asp(pyrrolidino)-Asp(cyPn)-NHCH2CMe2Et]
7,170,CCC(CC)NC(=O)N[C@H](C(=O)N[C@@H](CC(=O)N1CCCC1)C(=O)N[C@H](C(=O)N[C@H](CO)CC(C)(C)C)C1(C(=O)O)CCCC1)C(C)(C)C [Et2CHNHCO-Tbg-Asp(pyrrolidino)-Asp(cyPn)-γMeLeucinol]
8,150,CCCC(CCC)NC(=O)N[C@H](C(=O)N[C@@H](CC(=O)N1CCCC1)C(=O)N[C@H](C(=O)NCC(C)(C)C)C1(C(=O)O)CCCC1)C(C)(C)C [Pr2CHNHC(O)-Tbg-Asp(pyrrolidino)-Asp(cyPn)-NHCH2CMe3]

# Same assay, conditions: concentration effecting 50% inhibition of virus replication; BHK-21/C13 cells infected with HSV-2 strain HG-52 (0.02 PFU/cell), 29 h incubation, colorimetric (neutral red) viral titration; read-out: EC50
row,Structure (SMILES),EC50 [µM]
1,"CC(C)(C)C[C@H](NC(=O)[C@@H](NC(=O)[C@H](CC(=O)N1CCCC1)NC(=O)[C@@H](NC(=O)NC(C)(C)CC(C)(C)C)C(C)(C)C)C1(C(=O)O)CCCC1)C(=O)O [Me3CCH2CMe2NHC(O)-Tbg-Asp(pyrrolidino)-Asp(cyPn)-γMeLeu-OH] ({X2-CO}-[Tle]D(Pyrrolidide)[Asp(3,3-(CH2)4)][tBuAla]-OH)",110
